Laboratory results as given in patent EP1656945A1, “Pharmaceutical composition comprising oligoarginine” (THE BOARD OF TRUSTEES OF THE LELAND STANFORD JUNIOR …, priority 1999, dated 2006).

Assays:
[1] = tested on: human umbilical vein endothelial cells (ECV304); assay: In vitro translocation of biotin-labeled peptides into endothelial cells; type: cell-based; conditions: control treatments, 30 minutes incubation (peptides 0.1, 1.0, and 10.0 µM)
Procedure: In the studies described below, transmembrane transport and cellular uptake of oligomers was assessed by incubating cells or tissue with biotin-oligomer conjugates, followed by treatment with horseradish peroxidase (HRP)-conjugated streptavidin and subsequent incubation with DAB (3,3'-diaminobenzidine), a substrate of the enzyme which produces a highly colored product.
Spontaneously transformed human umbilical vein endothelial cells (ECV304, ATCC) were cultured in medium M199 (Irvine Scientific) containing 10% fetal bovine serum (FBS), 100 IU/ml penicillin and 100 µg/ml of streptomycin (Gibco BRL). Confluent cells were washed and placed in serum-free medium. After 2 hours, the cells were incubated in presence of biotin labeled peptides, as bL-R7, or bD-R7, or bL-K7 (0.1, 1.0, and 10.0 µM). After 30 minutes of incubation, cells were washed 3 times with phosphate-buffered saline (PBS), fixed in ethanol/acetone; washed in PBS; incubated for 30 minutes with peroxidase suppressor (ImmunoPure, Pierce) to block endogenous peroxidase activity; and then incubated with 5 µg/ml of horse-radish peroxidase (HRP) conjugated strepavidin (Pierce) for 30 minutes. Substrate of HRP, diaminobenzidine (DAB, Sigma), was added to the cells. The reaction was terminated by washing in distilled water after a 60-second incubation. This experiment was repeated 3 times.

[2] = tested on: rabbit carotid artery segment; assay: Ex vivo translocation of biotin-labeled peptides into carotid artery segments; parameters: species or system New Zealand white rabbits; conditions: reincubated in DMEM with 10% FBS; for positive staining (internalized biotin): day 5 after exposure (10.0 µM, 30 minutes)
Procedure: After incubation with biotin labeled oligomer, vascular segments were washed, then frozen in OCT compound (Miles Scientific). Frozen sections, 5 µm thick, were fixed with acetone for 10 minutes. Internalized biotin was detected using the staining procedure described in Example 2. Methyl green was used for nuclear counter staining.
To quantify the efficiency of nuclear translocation, the numbers of both DAB positive nuclei and total nuclei were counted in the intima and media separately at X400 magnification with a video image analysis system (Automatrix). The frequency of nuclear translocation was expressed as the percent staining of nuclei, defined as the ratio of the number of DAB positive nuclei to that of all nuclei, in the intima and media. Each protocol was repeated 4 times.
Both carotid artery and jugular vein segments of male New Zealand white rabbits were used. To test the dose dependence of R7 translocation, vascular segments were incubated for 30 minutes with either bL-R7 or bD-R7 solution (0.1, 1.0, and 10.0 µM) in serum-free Dulbecco's minimal essential medium (DMEM) (Gibco BRL). To test the incubation time dependence, vascular segments were incubated with 10.0 µM of biotin labeled R7 solution for 10 seconds, 60 seconds, 5 minutes, 10 minutes, and 30 minutes. Furthermore, to determine the ability of R7 to penetrate through the vessel wall, vascular segments were ligated one end, R7 containing medium was instilled, and the other end ligated so as to expose only the luminal surface to R7. The luminal surface of the vascular segment was exposed to bL-R7 or bD-R7 (10.0 µM) for 30 minutes. To test the temperature dependence of translocation, vascular segments were incubated with 10.0 µM of biotin labeled R7 solutions at 37°C or 4°C. To determine the disappearance time course of translocated R7. vascular segments were incubated with biotin labeled R7 solutions (10.0 µM) at 37°C for 30 minutes, and then reincubated in DMEM with 10% FBS up to 5 days. Vascular segments were harvested at 1, 2 and 5 days after initial incubation.

rat VSMC = assay: Stimulation of VSMC with interferon-γ and LPS, dependence of NO2 production on cytokine and L-arginine; type: cell-based; conditions: extracellular L-arginine over the range of 0 to 10mM, IFN-γ (100U/ml) and LPS (100µg/ml) 24 hours
Procedure: (§1) Rat VSMCs were prepared from the media layer of thoracic aorta of Sprague-Dawley rats by the explant method. The cells were cultured in Dulbecco's modified Eagle's medium (DMEM, Gibco BRL, Gaithersburg, MD) containing 10% fetal calf serum, 100U/ml penicillin and 100µg/ml streptomycin at 37°C under a humidified atmosphere containing 5% CO2. After subconfluent growth, cells were cultured with MEM Select Amine Kit (Gibco BRL, Gaithersburg, MD) to be treated by specific concentrations of extracellular free L-arginine. Experiments were performed using cultured cells at passage levels of 5-10.
Extracellular NO production was measured as its stable oxidative metabolite, nitrite (NO2). […] Values of NO2 production were corrected with relative cell count assessed by a cell proliferation kit II (XTT) (Boeheringer Mannheim, Germany).
Cells were plated at a density of 5 × 10^3 per well into 96-well plates. […] After 24 hours of incubation, the cells were then treated with a mixture of IFN-γ (100U/ml) and LPS (100µg/ml) in the medium containing the same dose of L-arginine for another 24 hours, and nitrite (NO2) accumulation in the culture medium was quantified.
No detectable NO2 was measured in the medium of non-stimulated VSMC. When cells were stimulated with a mixture of IFN-γ (100U/ml) and LPS ([…]), a significant amount of NO2 was detected in the medium (14.7 ± 0.3 µM / 10^5 cells / 24 hours). […]

cytokine-stimulated VSMC = assay: Effect of arginine oligomers on NO production (NO2, Griess reaction) in cytokine-stimulated VSMC; type: cell-based, rat
Procedure: as §1
Extracellular NO production was measured as its stable oxidative metabolite, nitrite (NO2). At the end of each incubation, samples of the medium (80µl) were collected, and NO2 measurement was performed using the Griess reaction facilitated by a commercial colorimetric assay (Cayman Chemical, Ann Arbor, MI). Values of NO2 production were corrected with relative cell count assessed by a cell proliferation kit II (XTT) (Boeheringer Mannheim, Germany).
Subconfluent cells were pre-incubated with medium containing 100µM arginine for 24 hours. […] After translocation, the cells were incubated with a mixture of IFN-γ (100U/ml) and LPS (100µg/ml) in medium containing 100µM L-arginine for another 24 hours. In some experiments, L-NMMA (1mM), a nitric oxide synthase inhibitor, was added to the medium.

Which internalized biotin signals [1] does the source give for O=C(O)CCCC[C@@H]1SC[C@@H]2NC(=O)N[C@@H]21 [biotin] here?
The internalized biotin signals was “No internalized biotin signals were detected”.

How did the “positive staining (internalized biotin)” value [2] turn out when N=C(N)NCCC[C@@H](NC(=O)[C@@H](CCCNC(=N)N)NC(=O)[C@@H](CCCNC(=N)N)NC(=O)[C@@H](CCCNC(=N)N)NC(=O)[C@@H](CCCNC(=N)N)NC(=O)[C@@H](CCCNC(=N)N)NC(=O)[C@@H](CCCNC(=N)N)NC(=O)CCCC[C@@H]1SC[C@@H]2NC(=O)N[C@@H]21)C(=O)O [bD-r7] was run?
Its value is “No significant positive staining was observed”.

What about the “residual nuclear biotin in endothelial and medial cells” value ([2]; days 1 and 2 after exposure (10.0 µM, 30 minutes)) of the same compound?
The value was “greater in vascular segments treated with bD-r7 than those treated with bL-R7”.

With N=C(N)NCCC[C@H](NC(=O)[C@H](CCCNC(=N)N)NC(=O)[C@H](CCCNC(=N)N)NC(=O)[C@H](CCCNC(=N)N)NC(=O)[C@H](CCCNC(=N)N)NC(=O)[C@H](CCCNC(=N)N)NC(=O)[C@H](CCCNC(=N)N)NC(=O)CCCC[C@@H]1SC[C@@H]2NC(=O)N[C@@H]21)C(=O)O [bR7, biotin-labeled heptaarginine] as the compound, how does the “positive staining (internalized biotin)” value [2] read?
Its value is “No significant positive staining was observed”.

N=C(N)NCCC[C@H](N)C(=O)O [L-arginine] was tested. Which “NO2 synthesis by cytokine stimulated VSMC” value (rat VSMC) did it give?
Its value is “progressive increase in NO2 synthesis”.

And the NO biosynthesis (cytokine-stimulated VSMC; 1 mM for 5 minutes (data not shown))?
Its NO biosynthesis is “did not significantly increase NO biosynthesis”.

What about the “elevation of NO production” value (cytokine-stimulated VSMC; high concentrations, up to 1mM) of the same compound?
The value was “not observed”.
